Assay results as given in US20020107231A1, “Remedy for autoimmune diseases” (priority 1992, published 2002).
Structures can show the parent of a compound that is named as a salt.

Assays:
Assay type in all cases: in vivo, mouse
[1] = system: NZB×NZW mice (B/W F1 mice); test: Comparison of survival time of NZB×NZW F1 mice; conditions: for animals alive after one year / animals died at/before the age of 40 weeks / animals still alive after almost two years' time: female mice; for animals alive after one year: female control 20%; for animals died at/before the age of 40 weeks: female control 50% died
Description: NZB×NZW mice (B/W F1 mice) were used as a pathological model of autoimmune diseases (systemic lupus erythematodes). Effect of toremifene citrate on the survival time of the animals was investigated.
F1-hybrids of NZB (female) and NZW (male) mice (B/W F1 mice): Imported from Bomholtgaard, Denmark at the age of five weeks.
Toremifene citrate 30 mg/kg/day: administration 70 mg/kg in polyethylene glycol solution 3 times a week per os to female NZB×NZW F1 mice
Toremifene citrate 3 mg/kg/day: administration 7 mg/kg in polyethylene glycol solution 3 times a week per os to female NZB×NZW F1 mice
All but two female control animals have died during the almost two years' follow-up time. Fifty percents of the animals in this group died before/at the age of 40 weeks, and 20% (4/20) were alive after one year.

[2] = system: MRL/Mp-lpr/lpr mice; test: Inhibition of sialadenitis, angitis and arthritis of MRL/Mp-lpr/lpr mice (histopathology); conditions: 100 mg/kg orally once a day for 13 weeks
Description: (§1) Eight-week old female MRL/Mp-lpr/lpr mice (Clea Japan, Inc.) were used in this examination. Toremifene citrate (JP-B-4 19973) was suspended in carboxymethylcellulose to prepare a 0.5% suspension. This compound (100 mg/kg) was orally administered to each mouse once a day for 13 weeks.
The salivary gland, renal blood vessel and knee joint of each mouse in the control group and the toremifene citrate treated group were histopathologically examined.
1) The salivary gland, kidney and knee joint were fixed in 10% buffered formalin, and then paraffin sections thereof were prepared by an ordinary method to prepare HE and PAS stained specimens. The extent of the disorder was scored and classified into the following groups: […]

[3] = system: MRL/Mp-lpr/lpr mice; test: Suppression of renal disorder (glomerulonephritis score, BUN) of MRL/Mp-lpr/lpr mice; conditions: 100 mg/kg orally once a day for 13 weeks
Description: as §1
An autopsy was performed on the mice of the control group and the toremifene citrate treated group after the completion of the administration to examine their kidneys pathohistologically. The blood urea nitrogen (BUN) of the serum in each group was examined to confirm changes in the renal function.
1) The kidney was fixed in 10% buffered formalin, and then paraffin sections thereof were prepared by an ordinary method to prepare HE and PAS stained specimens. The extent of the disorder of the renal glomeruli was scored and classified into the following groups:
2) The BUN was determined with a Fuji Dry Chem Analyzer.

[4] = system: MRL/Mp-lpr/lpr mice; test: Inhibition of swelling of spleen and lymph node of MRL/Mp-lpr/lpr mice; conditions: 100 mg/kg orally once a day for 13 weeks
Description: as §1

[5] = system: MRL/Mp-lpr/lpr mice; test: Suppression of glomerulonephritis (Mac 2 number per glomerulus) by concomitant use of toremifene citrate with glucocorticoid; conditions: for change in Mac 2 number as compared with the control (in words): all dose groups, 9 weeks, t-test
Description: Twelve-week old female MRL/Mp-lpr/lpr mice were used in the examination. Thirty miligrams per kg or 15 mg/kg of toremifene citrate (TOR) was orally administered to each mouse twice a day for 9 weeks from the 12th week to the 21st week. A glucocorticoid (prednisolone), 8, 4 and 2 mg/kg/day, were subcutaneously administered to mice once a day as a positive control drug. The concomitant use of tremifene with the glucocorticoid was also carried out according to the same regimen as above. The kidney was taken out from each mouse the day after the completion of the whole administration period and fixed in a PLP fixative. Frozen sections were made from the fixed kidney and used for an immunostaining with an anti-Mac-2 monoclonal antibody (Hybritec Inc., San Diego, USA). The number of Mac-2 positive cells (activated macrophages) invading each of 10 to 20 glomeruli of the kidney, which is hereinafter referred to as Mac 2 number, was counted under a microscopy to determine an average Mac 2 number per glomerulus. The degree of severeness of glomerulonephritis was estimated in terms of the average Mac 2 number (n=13 for each group).

[6] = 3 mg/kg/day (7 mg/kg 3 times a week per os)
[7] = 30 mg/kg/day (70 mg/kg 3 times a week per os)

CN(C)CCOc1ccc(/C(=C(/CCCl)c2ccccc2)c2ccccc2)cc1 [Toremifene citrate, 2[4-(Z)-4-Chloro-1,2-Diphenyl-1-Butenyl]Phenoxy-N,N-Dimethylethylamine Citrate]
animals alive after one year [1, 6]: 80%
animals died at/before the age of 40 weeks [1, 6]: 1/20
animals alive after one year [1, 7]: 85%
animals died at/before the age of 40 weeks [1, 7]: 3/20
life span compared to the female control animals (in words) ([1]; both treatment groups (3 and 30 mg/kg/day)): lengthened clearly
animals still alive after almost two years' time ([1]; higher dosage group (30 mg/kg/day)): 10%
animals still alive after almost two years' time ([1]; lower dosage group (3 mg/kg/day)): 25%
attack by sialadenitis, angitis and arthritis (in words) [2]: prevented the mice from being attacked by sialadenitis, angitis and arthritis
Arthritis (score 0-3) ([2]; knee joint, mean ± standard deviation, control 1.6 ± 0.9): 0.4 ± 0.5
Angitis (score 0-3) ([2]; renal blood vessel, mean ± standard deviation, control 2.1 ± 0.7): 0.9 ± 0.8
Sialadenitis (score 0-3) ([2]; salivary gland, mean ± standard deviation, control 2.2 ± 0.6): 0.9 ± 0.8
glomerulonephritis (in words) [3]: ameliorated the glomerulonephritis
renal function (in words) [3]: healed the renal function
Glomerulonephritis (score 0-3, average of 25 renal glomeruli) ([3]; mean ± standard deviation, control 2.4 ± 0.7): 1.2 ± 0.7
BUN ([3]; serum, mean ± standard deviation, control 43.1 ± 23.9): 24.6 ± 4.9 mg/dL
swelling of the spleen and lymph node (in words) [4]: inhibited the swelling of the spleen and lymph node
swelling of spleen ([formula]) ([4]; 8-week old female mice, mean ± standard deviation, control 2.34 ± 0.74): 1.38 ± 1.06
swelling of lymph node ([formula]) ([4]; 8-week old female mice, mean ± standard deviation, control 6.77 ± 1.70): 3.11 ± 1.43
Mac 2 number ([5]; TOR 15 mg/kg orally twice a day for 9 weeks, first series, control 7.5 ± 1.5): 6.5 ± 1.2
Mac 2 number ([5]; TOR 30 mg/kg orally twice a day for 9 weeks, first series, control 7.5 ± 1.5): 6.2 ± 1.0
change in Mac 2 number as compared with the control (in words) [5]: did not exhibit any significant decrease in Mac 2 number

C[C@]12C=CC(=O)C=C1CC[C@@H]1[C@@H]2[C@@H](O)C[C@@]2(C)[C@H]1CC[C@]2(O)C(=O)CO [Prednisolone, prednisolone]
change in Mac 2 number as compared with the control (in words) [5]: did not exhibit any significant decrease in Mac 2 number
Mac 2 number ([5]; prednisolone 2 mg/kg subcutaneously once a day for 9 weeks, first series, control 7.5 ± 1.5): 9.4 ± 1.0
Mac 2 number ([5]; prednisolone 2 mg/kg subcutaneously once a day for 9 weeks, second series, control 11.3 ± 1.2): 7.7 ± 1.0
Mac 2 number ([5]; prednisolone 4 mg/kg subcutaneously once a day for 9 weeks, first series, control 7.5 ± 1.5): 7.9 ± 0.7
Mac 2 number ([5]; prednisolone 4 mg/kg subcutaneously once a day for 9 weeks, second series, control 11.3 ± 1.2): 9.1 ± 1.4
Mac 2 number ([5]; prednisolone 8 mg/kg subcutaneously once a day for 9 weeks, first series, control 7.5 ± 1.5): 5.8 ± 0.8
